According to patent publication US8063099B2, “Trans-3-aza-bicyclo[3.1.0]hexane derivatives” (Actelion Pharmaceuticals Ltd., priority 2007, dated 2011):
Where two headings read alike, the source gives them in different places.

How the values were obtained:
human orexin-2 receptor = molecular target: T1, human orexin-2 receptor (Homo sapiens, UniProt O43614); test: Intracellular calcium measurements (FLIPR), orexin receptor antagonistic activity; assay type: cell-based; details: CHO cells expressing human orexin-2 receptor, 3 nM orexin-A, read-out: OX2 IC50
T1 construct: expressed in transfected cells; host or cells: Chinese hamster ovary (CHO) cells, G418 selection
T1 sequence (O43614 1-444): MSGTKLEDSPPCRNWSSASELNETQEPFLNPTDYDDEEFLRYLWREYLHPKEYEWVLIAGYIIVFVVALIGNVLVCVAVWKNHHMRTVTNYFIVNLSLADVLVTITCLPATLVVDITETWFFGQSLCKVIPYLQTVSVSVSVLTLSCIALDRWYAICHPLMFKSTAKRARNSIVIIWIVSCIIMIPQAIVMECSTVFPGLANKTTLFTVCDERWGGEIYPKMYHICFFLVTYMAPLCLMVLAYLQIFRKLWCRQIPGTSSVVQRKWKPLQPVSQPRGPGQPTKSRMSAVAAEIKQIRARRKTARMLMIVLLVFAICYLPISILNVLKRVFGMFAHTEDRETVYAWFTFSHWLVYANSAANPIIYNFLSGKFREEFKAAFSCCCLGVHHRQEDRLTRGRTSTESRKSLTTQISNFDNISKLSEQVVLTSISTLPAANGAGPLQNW
Method: (§1) The orexin receptor antagonistic activity of the compounds of formula (I) is determined in accordance with one of the following experimental methods.
(§2) Intracellular Calcium Measurements:
(§3) Chinese hamster ovary (CHO) cells expressing the human orexin-1 receptor and the human orexin-2 receptor, respectively, are grown in culture medium (Ham F-12 with L-Glutamine) containing 300 μg/ml G418, 100 U/ml penicillin, 100 μg/ml streptomycin and 10% heat inactivated fetal calf serum (FCS). The cells are seeded at 20'000 cells/well into 384-well black clear bottom sterile plates (Greiner). The seeded plates are incubated overnight at 37° C. in 5% CO2.
(§4) Human orexin-A as an agonist is prepared as 1 mM stock solution in MeOH:water (1:1), diluted in HBSS containing 0.1% bovine serum albumin (BSA), NaHCO3:0.375 g/l and 20 mM HEPES for use in the assay at a final concentration of 3 nM.
(§5) Antagonists are prepared as 10 mM stock solution in DMSO, then diluted in 384-well plates, first in DMSO, then in HBSS containing 0.1% bovine serum albumin (BSA), NaHCO3: 0.375 g/l and 20 mM HEPES.
(§6) On the day of the assay, 50 μl of staining buffer (HBSS containing 1% FCS, 20 mM HEPES, NaHCO3: 0.375 g/l, 5 mM probenecid (Sigma) and 3 μM of the fluorescent calcium indicator fluo-4 AM (1 mM stock solution in DMSO, containing 10% pluronic) is added to each well.
(§7) The 384-well cell-plates are incubated for 50 min at 37° C. in 5% CO2 followed by equilibration at RT for 30-120 min before measurement.
(§8) Within the Fluorescent Imaging Plate Reader (FLIPR2 or FLIPR Tetra, Molecular Devices), antagonists are added to the plate in a volume of 10 μl/well, incubated for 10 min and finally 10 μl/well of agonist is added. Fluorescence is measured for each well at 1 second intervals, and the height of each fluorescence peak is compared to the height of the fluorescence peak induced by 3 nM orexin-A with vehicle in place of antagonist. For each antagonist, the IC50 value (the concentration of compound needed to inhibit 50% of the agonistic response) is determined. With the FLIPR Tetra, non-optimized and optimized conditions were used. Optimized conditions were achieved by adjustment of pipetting speed and cell splitting regime. The calculated IC50 values of the compounds may fluctuate depending on the daily cellular assay performance. Fluctuations of this kind are known to those skilled in the art.

human orexin-1 receptor = molecular target: T2, human orexin-1 receptor (Homo sapiens, UniProt O43613); test: as above; assay type: cell-based; details: CHO cells expressing human orexin-1 receptor, 3 nM orexin-A, read-out: OX1 IC50
T2 construct: expressed in transfected cells; host or cells: Chinese hamster ovary (CHO) cells, G418 selection
T2 sequence (O43613 1-425): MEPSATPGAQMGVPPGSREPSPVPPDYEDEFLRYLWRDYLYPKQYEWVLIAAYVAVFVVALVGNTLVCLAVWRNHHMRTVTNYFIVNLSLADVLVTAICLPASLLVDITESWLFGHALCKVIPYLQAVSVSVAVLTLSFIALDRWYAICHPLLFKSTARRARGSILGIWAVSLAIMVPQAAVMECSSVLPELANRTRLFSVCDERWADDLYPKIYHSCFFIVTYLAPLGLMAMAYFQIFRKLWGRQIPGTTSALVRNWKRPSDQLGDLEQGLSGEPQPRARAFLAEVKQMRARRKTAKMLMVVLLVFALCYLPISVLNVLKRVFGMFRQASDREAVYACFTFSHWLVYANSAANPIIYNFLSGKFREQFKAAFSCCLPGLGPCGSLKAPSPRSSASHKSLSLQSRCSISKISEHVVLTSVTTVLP
Method: as §1, §2, §3, §4, §5, §6, §7, §8

[1] = FLIPR Tetra, optimized conditions
[2] = FLIPR Tetra, non-optimized conditions

## Cc1cc(C)cc(C(=O)NC[C@@H]2[C@H]3C[C@H]3CN2C(=O)c2nc(C)sc2-c2cccc(C)c2)c1 [Example 147, 3,5-Dimethyl-N-[(1S,2S,5R)-3-(2-methyl-5-m-tolyl-thiazole-4-carbonyl)-3-aza-bicyclo[3.1.0]hex-2-ylmethyl]-benzamide]
Human orexin-2 receptor; FLIPR2
  IC50: 26 nM
Human orexin-1 receptor; FLIPR2
  IC50: 324 nM

## Cc1ccc(-c2sccc2C(=O)N2C[C@@H]3C[C@@H]3[C@H]2CNC(=O)c2cccc3c2NCCO3)cc1 [Example 266, 3,4-Dihydro-2H-benzo[1,4]oxazine-5-carboxylic acid [(1S,2S,5R)-3-(2-p-tolyl-thiophene-3-carbonyl)-3-aza-bicyclo[3.1.0]hex-2-ylmethyl]-amide]
Human orexin-2 receptor; [1]
  IC50: 19 nM
Human orexin-1 receptor; [1]
  IC50: 65 nM

## Cc1ncc(C(=O)N2C[C@@H]3C[C@@H]3[C@H]2CNC(=O)c2c(C)nc3sccn23)c(-c2ccccc2)n1 [Example 23, 6-Methyl-imidazo[2,1-b]thiazole-5-carboxylic Acid[(1S,2S,5R)-3-(2-methyl-4-phenyl-pyrimidine-5-carbonyl)-3-aza-bicyclo[3.1.0]hex-2-ylmethyl]-amide]
Human orexin-2 receptor; FLIPR2
  IC50: 338 nM
Human orexin-1 receptor; FLIPR2
  IC50: 35 nM

## Cc1nc(C(=O)N2C[C@@H]3C[C@@H]3[C@H]2CNC(=O)c2cccc(Br)c2)c(-c2cccc(Cl)c2)s1 [Example 74, 3-Bromo-N-{(1S,2S,5R)-3-[5-(3-chloro-phenyl)-2-methyl-thiazole-4-carbonyl]-3-aza-bicyclo[3.1.0]hex-2-ylmethyl}-benzamide]
Human orexin-2 receptor; FLIPR2
  IC50: 48 nM
Human orexin-1 receptor; FLIPR2
  IC50: 84 nM

## Cc1cccc(-c2sccc2C(=O)N2C[C@@H]3C[C@@H]3[C@H]2CNC(=O)c2cccc3oc(C)nc23)c1 [Example 297, 2-Methyl-benzoxazole-4-carboxylic acid [(1S,2S,5R)-3-(2-m-tolyl-thiophene-3-carbonyl)-3-aza-bicyclo[3.1.0]hex-2-ylmethyl]-amide]
Human orexin-2 receptor; [1]
  IC50: 16 nM
Human orexin-1 receptor; [1]
  IC50: 83 nM

## Cc1cccc(-c2sc(Br)nc2C(=O)N2C[C@@H]3C[C@@H]3[C@H]2CNC(=O)c2c(C)nc3sccn23)c1 [Example 29, 6-Methyl-imidazo[2,1-b]thiazole-5-carboxylic acid[(1S,2S,5R)-3-(2-bromo-5-m-tolyl-thiazole-4-carbonyl)-3-aza-bicyclo[3.1.0]hex-2-ylmethyl]-amide]
Human orexin-2 receptor; FLIPR2
  IC50: 27 nM
Human orexin-1 receptor; FLIPR2
  IC50: 4 nM

## Cc1nc(C(=O)N2C[C@@H]3C[C@@H]3[C@H]2CNC(=O)c2cccc3c2OC(C)(C)C3)c(-c2cccc(Cl)c2)s1 [Example 73, 2,2-Dimethyl-2,3-dihydro-benzofuran-7-carboxylic Acid{(1S,2S,5R)-3-[5-(3-chloro-phenyl)-2-methyl-thiazole-4-carbonyl]-3-aza-bicyclo[3.1.0]hex-2-ylmethyl}-amide]
Human orexin-2 receptor; FLIPR2
  IC50: 9 nM
Human orexin-1 receptor; FLIPR2
  IC50: 21 nM

## Cc1nc2sccn2c1C(=O)NC[C@@H]1[C@H]2C[C@H]2CN1C(=O)c1ccccc1-c1ccccc1F [Example 19, 6-Methyl-imidazo[2,1-b]thiazole-5-carboxylic acid[(1S,2S,5R)-3-(2′-fluoro-biphenyl-2-carbonyl)-3-aza-bicyclo[3.1.0]hex-2-ylmethyl]-amide]
Human orexin-2 receptor; FLIPR2
  IC50: 174 nM
Human orexin-1 receptor; FLIPR2
  IC50: 22 nM

## Cc1nc2sccn2c1C(=O)NC[C@@H]1[C@H]2C[C@H]2CN1C(=O)c1ccccc1-c1cccs1 [Example 32, 6-Methyl-imidazo[2,1-b]thiazole-5-carboxylic acid[(1S,2S,5R)-3-(2-thiophen-2-yl-benzoyl)-3-aza-bicyclo[3.1.0]hex-2-ylmethyl]-amide]
Human orexin-2 receptor; FLIPR2
  IC50: 55 nM
Human orexin-1 receptor; FLIPR2
  IC50: 15 nM

## N#Cc1ccc(-c2sc(C3CC3)nc2C(=O)N2C[C@@H]3C[C@@H]3[C@H]2CNC(=O)c2cccc(Cl)c2)cc1 [Example 186, 3-Chloro-N-{(1S,2S,5R)-3-[5-(4-cyano-phenyl)-2-cyclopropyl-thiazole-4-carbonyl]-3-aza-bicyclo[3.1.0]hex-2-ylmethyl}-benzamide]
Human orexin-2 receptor; [2]
  IC50: 296 nM
Human orexin-1 receptor; [2]
  IC50: 3260 nM

## Cc1cccc(-c2sc(C)nc2C(=O)N2C[C@@H]3C[C@@H]3[C@H]2CNC(=O)c2cc(F)cc3c2OCOC3)c1 [Example 42, 6-Fluoro-4H-benzo[1,3]dioxine-8-carboxylic Acid[(1S,2S,5R)-3-(2-methyl-5-m-tolyl-thiazole-4-carbonyl)-3-aza-bicyclo[3.1.0]hex-2-ylmethyl]-amide]
Human orexin-2 receptor; FLIPR2
  IC50: 12 nM
Human orexin-1 receptor; FLIPR2
  IC50: 49 nM

## Cc1cccc(-c2sc(C)nc2C(=O)N2C[C@@H]3C[C@@H]3[C@H]2CNC(=O)c2cccc3sc(Cl)nc23)c1 [Example 299, 2-Chloro-benzothiazole-4-carboxylic Acid[(1S,2S,5R)-3-(2-methyl-5-m-tolyl-thiazole-4-carbonyl)-3-aza-bicyclo[3.1.0]hex-2-ylmethyl]-amide]
Human orexin-2 receptor; [1]
  IC50: 14 nM
Human orexin-1 receptor; [1]
  IC50: 28 nM

## Cc1cccc(-c2sccc2C(=O)N2C[C@@H]3C[C@@H]3[C@H]2CNC(=O)c2cc3occc3n2C)c1 [Example 282, 4-Methyl-4H-furo[3,2-b]pyrrole-5-carboxylic acid [(1S,2S,5R)-3-(2-m-tolyl-thiophene-3-carbonyl)-3-aza-bicyclo[3.1.0]hex-2-ylmethyl]-amide]
Human orexin-2 receptor; [1]
  IC50: 32 nM
Human orexin-1 receptor; [1]
  IC50: 117 nM

## Cc1cccc(-c2sc(C)nc2C(=O)N2C[C@@H]3C[C@@H]3[C@H]2CNC(=O)c2cccc3c2OC(C)(C)C3)c1 [Example 43, 2,2-Dimethyl-2,3-dihydro-benzofuran-7-carboxylic acid[(1S,2S,5R)-3-(2-methyl-5-m-tolyl-thiazole-4-carbonyl)-3-aza-bicyclo[3.1.0]hex-2-ylmethyl]-amide]
Human orexin-2 receptor; FLIPR2
  IC50: 19 nM
Human orexin-1 receptor; FLIPR2
  IC50: 26 nM

## Cc1cccc(-c2sc(C)nc2C(=O)N2C[C@@H]3C[C@@H]3[C@H]2CNC(=O)c2n[nH]c3ccccc23)c1 [Example 58, 1H-Indazole-3-carboxylic Acid[(1S,2S,5R)-3-(2-methyl-5-m-tolyl-thiazole-4-carbonyl)-3-aza-bicyclo[3.1.0]hex-2-ylmethyl]-amide]
Human orexin-2 receptor; FLIPR2
  IC50: 57 nM
Human orexin-1 receptor; FLIPR2
  IC50: 37 nM

## Cc1nc(C(=O)N2C[C@@H]3C[C@@H]3[C@H]2CNC(=O)c2cccc3c2CCO3)c(-c2cccc(C(F)(F)F)c2)s1 [Example 201, 2,3-Dihydro-benzofuran-4-carboxylic acid {(1S,2S,5R)-3-[2-methyl-5-(3-trifluoromethyl-phenyl)-thiazole-4-carbonyl]-3-aza-bicyclo[3.1.0]hex-2-ylmethyl}-amide]
Human orexin-2 receptor; [2]
  IC50: 349 nM
Human orexin-1 receptor; [2]
  IC50: 673 nM

## CCn1nc(C)cc1C(=O)NC[C@@H]1[C@H]2C[C@H]2CN1C(=O)c1nc(C2CC2)sc1-c1cccc(C)c1 [Example 237, 2-Ethyl-5-methyl-2H-pyrazole-3-carboxylic acid [(1S,2S,5R)-3-(2-cyclopropyl-5-m-tolyl-thiazole-4-carbonyl)-3-aza-bicyclo[3.1.0]hex-2-ylmethyl]-amide]
Human orexin-2 receptor; [1]
  IC50: 38 nM
Human orexin-1 receptor; [1]
  IC50: 29 nM
